# Reference: PubChem BioAssay (NCI)
#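 Growth conditions: 96-well plates. Treatment: test compound, 48 hours, 5 concentrations. Analysis: linear interpolation between bracketing concentrations; unreached endpoints set to highest concentration. TGI: concentration producing complete growth inhibition.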
# Tests used:
# Assay in all cases: inhibition of tumour cell growth, NCI panel, 48 h
# [1] = tested on: 786-0 renal
# [2] = tested on: A498 renal
# [3] = tested on: A549 NSCLC
# [4] = tested on: ACHN renal
# [5] = tested on: CAKI-1 renal
# [6] = tested on: CCRF-CEM leukemia
# [7] = tested on: COLO 205 colon
# [8] = tested on: DLD-1 colon
# [9] = tested on: DMS 114 small cell lung
# [10] = tested on: DMS 273 small cell lung
# [11] = tested on: EKVX NSCLC
# [12] = tested on: HCC-2998 colon
# [13] = tested on: HCT-116 colon
# [14] = tested on: HCT-15 colon
# [15] = tested on: HL-60(TB) leukemia
# [16] = tested on: HOP-18 NSCLC
# [17] = tested on: HOP-62 NSCLC
# [18] = tested on: HOP-92 NSCLC
# [19] = tested on: HT29 colon
# [20] = tested on: IGROV1 ovarian
# [21] = tested on: K-562 leukemia
# [22] = tested on: KM12 colon
# [23] = tested on: KM20L2 colon
# [24] = tested on: LOX IMVI melanoma
# [25] = tested on: LXFL 529 NSCLC
# [26] = tested on: M14 melanoma
# [27] = tested on: M19-MEL melanoma
# [28] = tested on: MALME-3M melanoma
# [29] = tested on: MOLT-4 leukemia
# [30] = tested on: NCI-H23 lung
# [31] = tested on: NCI-H460 lung
# [32] = tested on: NCI-H522 lung
# [33] = tested on: OVCAR-3 ovarian
# [34] = tested on: OVCAR-4 ovarian
# [35] = tested on: OVCAR-5 ovarian
# [36] = tested on: OVCAR-8 ovarian
# [37] = tested on: RPMI-8226 leukemia
# [38] = tested on: RXF 393 renal
# [39] = tested on: RXF-631 renal
# [40] = tested on: SF-268 CNS
# [41] = tested on: SF-295 CNS
# [42] = tested on: SF-539 CNS
# [43] = tested on: SK-MEL-2 melanoma
# [44] = tested on: SK-MEL-28 melanoma
# [45] = tested on: SK-MEL-5 melanoma
# [46] = tested on: SK-OV-3 ovarian
# [47] = tested on: SN12C renal
# [48] = tested on: SNB-19 CNS
# [49] = tested on: SNB-75 CNS
# [50] = tested on: SW-620 colon
# [51] = tested on: TK-10 renal
# [52] = tested on: U251 CNS
# [53] = tested on: UACC-257 melanoma
# [54] = tested on: UACC-62 melanoma
# [55] = tested on: UO-31 renal
# [56] = tested on: XF 498 CNS
# [57] = tested on: NCI-H226 lung
# [58] = tested on: SNB-78 CNS
# [59] = tested on: SR leukemia
smiles,measurement,setting,value
COC(=O)CCC(=O)NC1C2CC3CC(C2)CC1C3 (stereo not drawn),TGI,[1],> 100 µM
same,TGI,[2],> 100 µM
same,TGI,[3],> 100 µM
same,TGI,[4],> 100 µM
same,TGI,[5],> 100 µM
same,TGI,[6],> 100 µM
same,TGI,[7],> 100 µM
same,TGI,[8],> 100 µM
same,TGI,[9],> 100 µM
same,TGI,[10],> 100 µM
same,TGI,[11],> 100 µM
same,TGI,[12],> 100 µM
same,TGI,[13],> 100 µM
same,TGI,[14],> 100 µM
same,TGI,[15],> 100 µM
same,TGI,[16],> 100 µM
same,TGI,[17],> 100 µM
same,TGI,[18],> 100 µM
same,TGI,[19],> 100 µM
same,TGI,[20],> 100 µM
same,TGI,[21],> 100 µM
same,TGI,[22],> 100 µM
same,TGI,[23],> 100 µM
same,TGI,[24],> 100 µM
same,TGI,[25],> 100 µM
same,TGI,[26],> 100 µM
same,TGI,[27],> 100 µM
same,TGI,[28],> 100 µM
same,TGI,[29],> 100 µM
same,TGI,[30],> 100 µM
same,TGI,[31],> 100 µM
same,TGI,[32],> 100 µM
same,TGI,[33],> 100 µM
same,TGI,[34],> 100 µM
same,TGI,[35],> 100 µM
same,TGI,[36],> 100 µM
same,TGI,[37],> 100 µM
same,TGI,[38],> 100 µM
same,TGI,[39],> 100 µM
same,TGI,[40],> 100 µM
same,TGI,[41],> 100 µM
same,TGI,[42],> 100 µM
same,TGI,[43],> 100 µM
same,TGI,[44],> 100 µM
same,TGI,[45],> 100 µM
same,TGI,[46],> 100 µM
same,TGI,[47],> 100 µM
same,TGI,[48],> 100 µM
same,TGI,[49],> 95.4 µM
same,TGI,[50],> 100 µM
same,TGI,[51],> 100 µM
same,TGI,[52],> 100 µM
same,TGI,[53],> 100 µM
same,TGI,[54],> 100 µM
same,TGI,[55],> 100 µM
same,TGI,[56],> 100 µM
CN(C)C(=S)/N=c1\ss/c(=N\S(=O)(=O)c2ccccc2)n1N(C)C,TGI,[1],> 100 µM
same,TGI,[2],> 100 µM
same,TGI,[3],> 100 µM
same,TGI,[4],> 100 µM
same,TGI,[5],> 100 µM
same,TGI,[6],> 100 µM
same,TGI,[7],> 100 µM
same,TGI,[8],> 100 µM
same,TGI,[9],85.9 µM
same,TGI,[10],> 100 µM
same,TGI,[11],> 100 µM
same,TGI,[12],> 100 µM
same,TGI,[13],> 100 µM
same,TGI,[14],> 100 µM
same,TGI,[15],> 100 µM
same,TGI,[16],> 100 µM
same,TGI,[17],> 100 µM
same,TGI,[20],> 100 µM
same,TGI,[21],> 100 µM
same,TGI,[22],> 100 µM
same,TGI,[23],> 100 µM
same,TGI,[25],> 100 µM
same,TGI,[26],> 100 µM
same,TGI,[27],> 100 µM
same,TGI,[28],> 100 µM
same,TGI,[29],> 100 µM
same,TGI,[57],> 100 µM
same,TGI,[31],> 100 µM
same,TGI,[32],37.8 µM
same,TGI,[33],> 100 µM
same,TGI,[34],> 100 µM
same,TGI,[36],> 100 µM
same,TGI,[37],> 100 µM
same,TGI,[38],85 µM
same,TGI,[39],> 100 µM
same,TGI,[40],> 100 µM
same,TGI,[42],> 100 µM
same,TGI,[43],> 100 µM
same,TGI,[44],> 100 µM
same,TGI,[45],> 100 µM
same,TGI,[46],> 100 µM
same,TGI,[47],> 100 µM
same,TGI,[48],> 100 µM
same,TGI,[49],> 100 µM
same,TGI,[58],> 100 µM
same,TGI,[59],> 100 µM
same,TGI,[50],> 100 µM
same,TGI,[51],> 100 µM
same,TGI,[52],> 100 µM
same,TGI,[53],> 100 µM
same,TGI,[54],> 100 µM
same,TGI,[55],> 100 µM
CC(=O)C1=CCC2c3[nH]c4ccccc4c3CCN2C1 (stereo not drawn),TGI,[1],> 100 µM
same,TGI,[2],> 100 µM
same,TGI,[3],> 100 µM
same,TGI,[4],> 100 µM
same,TGI,[6],> 100 µM
same,TGI,[7],> 100 µM
same,TGI,[8],> 100 µM
same,TGI,[10],> 100 µM
same,TGI,[11],> 100 µM
same,TGI,[12],> 100 µM
same,TGI,[13],> 100 µM
same,TGI,[14],> 100 µM
same,TGI,[15],> 100 µM
same,TGI,[16],> 100 µM
same,TGI,[17],> 100 µM
same,TGI,[18],> 100 µM
same,TGI,[19],> 100 µM
same,TGI,[20],> 100 µM
same,TGI,[21],91.3 µM
same,TGI,[22],> 100 µM
same,TGI,[23],46.2 µM
same,TGI,[24],> 100 µM
same,TGI,[25],> 100 µM
same,TGI,[26],> 100 µM
same,TGI,[27],> 100 µM
same,TGI,[28],> 100 µM
same,TGI,[29],> 100 µM
same,TGI,[57],> 100 µM
same,TGI,[30],> 100 µM
same,TGI,[31],> 100 µM
same,TGI,[32],65.6 µM
same,TGI,[33],> 100 µM
same,TGI,[34],> 100 µM
same,TGI,[35],> 100 µM
same,TGI,[36],> 100 µM
same,TGI,[38],> 100 µM
same,TGI,[39],> 100 µM
same,TGI,[40],> 100 µM
same,TGI,[41],> 100 µM
same,TGI,[42],> 100 µM
same,TGI,[43],> 100 µM
same,TGI,[44],> 100 µM
same,TGI,[45],> 100 µM
same,TGI,[46],75.6 µM
same,TGI,[47],> 100 µM
same,TGI,[48],> 100 µM
same,TGI,[49],88.3 µM
same,TGI,[58],> 100 µM
same,TGI,[59],> 100 µM
same,TGI,[50],> 100 µM
same,TGI,[51],> 100 µM
same,TGI,[52],> 100 µM
same,TGI,[53],> 100 µM
same,TGI,[55],> 100 µM
same,TGI,[56],> 100 µM
